# Source: article PMC5218480 (PLoS ONE, 2017)
# Test system: MV-4-11 cells
# Assay: Gene expression microarray analysis (Affymetrix PrimeView) and GSEA
# Format: cell-based, human
# Conditions: ProbeSet 11733176_x_at; LIST B
smiles,measurement,value
Nc1ccc(-c2cccs2)cc1NC(=O)c1ccc2c(c1)cc(C1CC1)n2CCN1CCOCC1 [ACY-1035],"RFU, ZNF507",24.05 RFU
